For data set [1], the target named is CYP2C9 (Homo sapiens, UniProt P11712). Description: Inhibition of CYP2C9 in human liver microsomes at 10 uM using tolbutamide 4-hydroxylase as substrate preincubated for 5 mins followed by NADPH regenerating system addition and measured after 15 mins by LC-MS/MS analysis relative to control. The format is ADME, Microsome. Conditions: probe tolbutamide (tolbutamide 4-hydroxylase), time 20 min. A general note: Liver microsomes are vesicles of endoplasmic reticulum, rich in cytochrome P450 enzymes.
CYP2C9, sequence (P11712 whole entry): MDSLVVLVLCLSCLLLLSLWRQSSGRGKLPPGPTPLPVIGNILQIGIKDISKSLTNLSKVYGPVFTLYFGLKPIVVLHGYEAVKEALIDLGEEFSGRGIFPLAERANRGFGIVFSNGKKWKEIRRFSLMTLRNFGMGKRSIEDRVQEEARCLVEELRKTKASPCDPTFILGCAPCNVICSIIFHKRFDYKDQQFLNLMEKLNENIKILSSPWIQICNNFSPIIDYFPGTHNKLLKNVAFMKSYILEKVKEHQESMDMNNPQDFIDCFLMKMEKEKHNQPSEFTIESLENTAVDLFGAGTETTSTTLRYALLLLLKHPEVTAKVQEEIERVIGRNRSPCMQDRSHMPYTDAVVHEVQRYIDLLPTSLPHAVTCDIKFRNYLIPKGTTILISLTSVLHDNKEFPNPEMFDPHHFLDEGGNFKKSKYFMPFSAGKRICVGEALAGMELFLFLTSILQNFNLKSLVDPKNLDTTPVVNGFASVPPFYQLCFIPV

The target of data set [2] is T1, UGT1A4 (Homo sapiens, UniProt P22310).
T1 sequence (P22310 whole entry): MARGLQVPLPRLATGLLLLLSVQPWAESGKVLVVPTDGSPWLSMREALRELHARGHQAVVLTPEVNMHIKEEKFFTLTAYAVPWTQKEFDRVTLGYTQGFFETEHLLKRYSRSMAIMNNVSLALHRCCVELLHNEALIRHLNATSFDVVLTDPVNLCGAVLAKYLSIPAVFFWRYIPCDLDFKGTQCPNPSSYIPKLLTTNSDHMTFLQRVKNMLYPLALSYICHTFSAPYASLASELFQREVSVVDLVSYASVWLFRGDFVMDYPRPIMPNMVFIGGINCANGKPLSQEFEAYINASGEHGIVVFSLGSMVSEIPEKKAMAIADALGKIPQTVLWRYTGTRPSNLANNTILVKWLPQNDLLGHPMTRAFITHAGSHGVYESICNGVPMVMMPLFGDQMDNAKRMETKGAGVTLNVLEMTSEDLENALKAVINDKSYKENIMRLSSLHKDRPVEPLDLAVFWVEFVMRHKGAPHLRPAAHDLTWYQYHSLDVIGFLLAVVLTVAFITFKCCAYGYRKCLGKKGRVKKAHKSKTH
The data set is described as follows: Inhibition of UGT1A4 (unknown origin) at 10 uM relative to control.

Data set [3] has as its target T2, UGT1A9 (Homo sapiens, UniProt O60656).
T2 sequence (O60656 whole entry): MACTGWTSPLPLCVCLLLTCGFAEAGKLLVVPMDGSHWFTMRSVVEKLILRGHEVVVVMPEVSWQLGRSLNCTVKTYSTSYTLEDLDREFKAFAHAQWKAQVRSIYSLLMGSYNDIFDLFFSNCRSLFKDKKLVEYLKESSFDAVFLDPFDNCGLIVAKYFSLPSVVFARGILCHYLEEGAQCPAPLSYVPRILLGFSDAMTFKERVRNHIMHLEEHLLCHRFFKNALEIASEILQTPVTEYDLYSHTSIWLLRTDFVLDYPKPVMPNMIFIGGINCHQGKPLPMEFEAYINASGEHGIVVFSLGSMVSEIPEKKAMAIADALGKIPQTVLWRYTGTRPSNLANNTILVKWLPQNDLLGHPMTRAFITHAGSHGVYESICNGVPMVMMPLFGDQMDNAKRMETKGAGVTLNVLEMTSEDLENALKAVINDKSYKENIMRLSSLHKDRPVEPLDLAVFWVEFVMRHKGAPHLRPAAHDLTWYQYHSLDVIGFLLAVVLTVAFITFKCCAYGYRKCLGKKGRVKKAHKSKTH
The data set is described as follows: Inhibition of UGT1A9 (unknown origin) at 10 uM relative to control.

Data set [4] is described as follows: AUCinfinity in Sprague-Dawley rat at 10 mg/kg, po measured after 24 hrs by LCMS analysis. The format is ADME, organism-based. The note with it: in vivo.
For data set [5], the system named is RAW264.7. The data set is described as follows: Cytotoxicity against mouse RAW264.7 cells assessed as reduction in cell viability incubated for 24 hrs by CCK-8 assay. The note with it: raw264.7, 24 h. The format is toxicity, cell-based.

In the case of `Cc1cc(SCc2nnc(-c3ccc(C(F)(F)F)cc3)s2)ccc1OCC(=O)O`, in data set [1], the inhibition (in general, the drop in the measured response relative to a control, in per cent) at 0.25 h, 10 µM came to 1.9%. Moreover, the inhibition at 10 µM was determined as 12.6% in data set [2] and 0.5% in data set [3]. The AUC(0-inf) (as a rule, the area under the concentration-time curve extrapolated to infinity) in data set [4] is 109 µM·h. Also, the Activity result in data set [5] is “Non-Toxic”.

The values above are taken from ChEMBL document CHEMBL6127055, “Discovery of the therapeutic potential of PPARδ agonist bearing 1,3,4- thiadiazole in inflammatory disorders” (Eur J Med Chem, 2024).
